The record followed here is patent publication US20150025105A1, “INDOLIZINE DERIVATIVES” (priority 2012, published 2015).

The structures appear in SMILES notation. Like-named read-outs stand apart in the source and are kept apart here. Some results are limits rather than exact numbers.

Type in all cases: biochemical
One test has as its target T1, human COX-1 (Homo sapiens, UniProt P23219).
T1 construct: purchased Cayman Chemical
Description: Cyclooxygenase (COX) inhibition assay, COX-1 (enzyme immunoassay). The settings on record: Table 2. As for the experimental part: (§1) The ability of the test compounds to inhibit (IC50 values, μM) human COX-1 and COX-2 (Cayman Chemical, Ann Arbor) is determined PGF2α, produced from COX reaction is measured by enzyme immunoassay. Either COX-1 or COX-2 enzyme in the presence of heme and various concentrations of test compound solutions (0.01-10 μM) is incubated after which substrate arachidonic acid is added. The concentration of the test compound causing 50% inhibition (IC50, μM) is calculated from the concentration-inhibition response curve.

In the next test the target is T2, human COX-2 (Homo sapiens, UniProt P35354).
T2 construct: purchased Cayman Chemical
T2 sequence (P35354 18-604): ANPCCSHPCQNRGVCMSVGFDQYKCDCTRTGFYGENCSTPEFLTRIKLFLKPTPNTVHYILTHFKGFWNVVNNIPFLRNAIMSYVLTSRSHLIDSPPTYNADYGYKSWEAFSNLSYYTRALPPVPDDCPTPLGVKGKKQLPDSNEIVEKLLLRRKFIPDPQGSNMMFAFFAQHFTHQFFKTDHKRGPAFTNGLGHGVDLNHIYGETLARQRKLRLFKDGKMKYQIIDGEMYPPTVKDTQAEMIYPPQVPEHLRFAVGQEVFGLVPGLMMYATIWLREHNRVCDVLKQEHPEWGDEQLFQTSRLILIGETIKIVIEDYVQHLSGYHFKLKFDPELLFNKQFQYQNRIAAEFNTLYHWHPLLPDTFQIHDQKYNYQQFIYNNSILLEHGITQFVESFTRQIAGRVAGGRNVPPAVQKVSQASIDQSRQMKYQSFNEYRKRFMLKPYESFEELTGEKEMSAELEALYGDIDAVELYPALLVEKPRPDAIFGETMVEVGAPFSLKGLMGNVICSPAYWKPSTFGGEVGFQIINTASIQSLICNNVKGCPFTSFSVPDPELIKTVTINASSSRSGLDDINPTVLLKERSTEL
Description: Cyclooxygenase (COX) inhibition assay, COX-2 (enzyme immunoassay). Particulars: Table 2. As for the experimental part:
as §1

The target in another test is T3, human Lp-PLA2 (Homo sapiens, UniProt Q13093).
T3 construct: purchased Cayman Chemical
T3 sequence (Q13093 22-441): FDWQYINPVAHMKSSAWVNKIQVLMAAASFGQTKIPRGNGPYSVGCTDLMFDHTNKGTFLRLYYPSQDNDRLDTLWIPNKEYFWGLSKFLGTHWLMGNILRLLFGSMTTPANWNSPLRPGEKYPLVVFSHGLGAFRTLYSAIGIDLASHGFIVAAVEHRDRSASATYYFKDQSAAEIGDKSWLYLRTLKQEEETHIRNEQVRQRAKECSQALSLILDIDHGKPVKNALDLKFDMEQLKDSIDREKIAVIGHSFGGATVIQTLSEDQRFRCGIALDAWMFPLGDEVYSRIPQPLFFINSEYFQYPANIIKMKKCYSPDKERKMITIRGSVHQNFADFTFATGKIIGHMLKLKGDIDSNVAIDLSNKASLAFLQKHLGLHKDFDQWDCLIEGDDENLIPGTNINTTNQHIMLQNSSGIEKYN
The test is described as follows: Lp-PLA2 inhibition assay (UV-spectrometry, 2-thio-PAF/DTNB, 96-well). As for the experimental part: The ability of synthesized indolizine derivatives (6) to inhibit (IC50 values, μM) human Lp-PLA2 (Cayman Chemical, Ann Arbor, Mich.) was determined based on a UV-spectrometry assay using 96-well plate format. […] The concentration of the test compound causing 50% inhibition (IC50, μM) was determined from the concentration-inhibition response curve (duplicate to quadruplicate determinations).
(§2) Phospholipase inhibition by synthesized compounds toward human Lp-PLA2, sPLA2 IIA and IV (Cayman Chemical Company, Ann Arbor, Mich.) are evaluated using a 96-well plate format. In this assay, different concentrations of test compounds (0.001-30 μM) are incubated with the PLA2 enzymes. The substrate hydrolysis by PLA2 is monitored by UV-spectroscopy. […] The concentration of the test compound causing 50% inhibition (IC50, μM) is determined from the concentration-inhibition response curve. Isothermal calorimetry (ITC) experiments using will be carried out to determine binding constant (KB) and dissociation constant (KD) of Lp-PLA2 inhibitors (Ann. Rev. Biophy. 37, 135-151, 2008; J. Am. Chem. Soc. 125, 10570-10579, 2003)]. Reference compounds (eg: varespladib and darapladib) will be used for comparison.

The target of the next test is T4, sPLA2 IIA (Homo sapiens, UniProt P14555).
T4 construct: purchased Cayman Chemical Company
T4 sequence (P14555 21-144): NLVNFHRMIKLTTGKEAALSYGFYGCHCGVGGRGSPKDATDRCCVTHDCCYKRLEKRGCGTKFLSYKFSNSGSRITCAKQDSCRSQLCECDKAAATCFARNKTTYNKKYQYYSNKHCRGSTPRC
The test is described as follows: Phospholipase A2 (PLA2) inhibition assay, sPLA2 IIA. Particulars: Table 2; for Selectivity Index (sPLA2/Lp-PLA2): ratio of sPLA2 IIA IC50 to Lp-PLA2 IC50. The method, then:
as §2

Where [1] appears, read: Table 1, substrate 2-thio-PAF, DTNB, 0.1M Tris-HCl pH 7.2, read-out: Lp-PLA2 (IC50).
Setting [2] is: Table 2, read-out: Lp-PLA2 Inhibition (IC50).

T1 sequence (P23219 24-599): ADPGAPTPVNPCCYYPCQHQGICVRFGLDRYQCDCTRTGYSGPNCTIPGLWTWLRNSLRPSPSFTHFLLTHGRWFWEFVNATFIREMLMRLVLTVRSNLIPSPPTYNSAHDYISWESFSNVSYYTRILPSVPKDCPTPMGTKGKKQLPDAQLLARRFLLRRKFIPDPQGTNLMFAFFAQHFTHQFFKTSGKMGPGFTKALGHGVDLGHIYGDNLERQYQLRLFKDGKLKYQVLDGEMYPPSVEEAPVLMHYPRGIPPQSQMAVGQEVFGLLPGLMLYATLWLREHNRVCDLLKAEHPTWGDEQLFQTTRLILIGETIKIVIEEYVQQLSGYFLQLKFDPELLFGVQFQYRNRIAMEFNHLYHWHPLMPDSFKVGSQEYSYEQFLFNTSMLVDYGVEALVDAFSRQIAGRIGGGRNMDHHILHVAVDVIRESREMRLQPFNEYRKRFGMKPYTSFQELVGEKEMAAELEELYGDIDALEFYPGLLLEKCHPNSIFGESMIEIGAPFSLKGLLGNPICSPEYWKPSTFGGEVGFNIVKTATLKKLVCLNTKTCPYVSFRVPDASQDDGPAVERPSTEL

By IC50 is commonly meant the concentration that inhibits the measured activity by half. Consider `CC(=O)c1c(-c2ccccc2)c(C(=O)c2ccccc2)c2ccccn12` [Cmpd 1], for which the 50% inhibitory concentration (IC50) at human COX-1 was more than 10 µM; at human COX-2, more than 10 µM; on human Lp-PLA2 (setting [1]), 0.51 µM; on human Lp-PLA2 (setting [2]) it was 0.51 µM; against sPLA2 IIA, more than 10 µM. The “Selectivity Index (sPLA2/Lp-PLA2)” value on sPLA2 IIA is listed as more than 19.6.
On to `CC(=O)c1c(-c2ccccc2)c(C(=O)c2ccc(C)cc2)c2ccccn12` [Cmpd 2, 1-[1-(4-methylbenzoyl)-2-phenylindolizin-3-yl]ethanone], for which the concentration for half-maximal inhibition (IC50) against human COX-1 is more than 10 µM; at human COX-2, more than 10 µM; on human Lp-PLA2 (setting [1]) it was 0.03 µM; on human Lp-PLA2 (setting [2]) it was 0.02 µM; on sPLA2 IIA, more than 10 µM. Moreover, the “Selectivity Index (sPLA2/Lp-PLA2)” value at sPLA2 IIA is on record as more than 500.
`CC(=O)c1c(-c2ccccc2)c(C(=O)c2ccc(C(C)C)cc2)c2ccccn12` [Cmpd 3, 1-[1-(4-isopropylbenzoyl)-2-phenylindolizin-3-yl]ethanone]: the IC50 is more than 10 µM against human COX-1; more than 10 µM on human COX-2; 0.8 µM at human Lp-PLA2 (setting [1]); 0.8 µM on human Lp-PLA2 (setting [2]); more than 10 µM on sPLA2 IIA. Also, the “Selectivity Index (sPLA2/Lp-PLA2)” value at sPLA2 IIA is listed as more than 12.5.
Take `CCCCc1ccc(C(=O)c2c(-c3ccccc3)c(C(C)=O)n3ccccc23)cc1` [Cmpd 4]: the 50% inhibitory concentration (IC50) was more than 10 µM against human COX-1; more than 10 µM against human COX-2; 0.29 µM on human Lp-PLA2 (setting [1]); 0.3 µM at human Lp-PLA2 (setting [2]); more than 10 µM on sPLA2 IIA. Moreover, at sPLA2 IIA, the “Selectivity Index (sPLA2/Lp-PLA2)” value is listed as more than 33.3.
Regarding `COc1ccc(C(=O)c2c(-c3ccccc3)c(C(C)=O)n3ccccc23)cc1` [Cmpd 5, 1-[1-(4-methoxybenzoyl)-2-phenylindolizin-3-yl]ethanone], the IC50 against human COX-1 was more than 10 µM; against human COX-2, more than 10 µM; at human Lp-PLA2 (setting [1]), 0.76 µM; at human Lp-PLA2 (setting [2]), 0.76 µM; at sPLA2 IIA, more than 10 µM. For the same compound, the “Selectivity Index (sPLA2/Lp-PLA2)” value on sPLA2 IIA is recorded as more than 13.1.
Take `CSc1ccc(C(=O)c2c(-c3ccccc3)c(C(C)=O)n3ccccc23)cc1` [Cmpd 6, 1-[1-(4-(methylthio)benzoyl)-2-phenylindolizin-3-yl]ethanone]: the half-inhibitory concentration (IC50) on human COX-1 is more than 10 µM; against human COX-2 it was more than 10 µM; at human Lp-PLA2 (setting [1]) it was 0.24 µM; on human Lp-PLA2 (setting [2]) it was 0.25 µM; against sPLA2 IIA, more than 10 µM. On sPLA2 IIA, the “Selectivity Index (sPLA2/Lp-PLA2)” value is given as more than 40.
`CC(=O)c1c(-c2ccccc2)c(C(=O)c2ccc(C(F)(F)F)cc2)c2ccccn12` [Cmpd 7, 1-[2-phenyl-1-(4-(trifluoromethyl)benzoyl)indolizin-3-yl]ethanone]: the IC50 is more than 10 µM on human COX-1; more than 10 µM against human COX-2; 0.06 µM at human Lp-PLA2 (setting [1]); 0.06 µM on human Lp-PLA2 (setting [2]); more than 10 µM at sPLA2 IIA. Moreover, the “Selectivity Index (sPLA2/Lp-PLA2)” value at sPLA2 IIA is listed as more than 166.6.
Turning to `CC(=O)c1c(-c2ccccc2)c(C(=O)c2ccc(F)cc2)c2ccccn12` [Cmpd 8, 1-[1-(4-fluorobenzoyl)-2-phenylindolizin-3-yl]ethanone], the IC50 against human COX-1 was more than 10 µM; at human COX-2, more than 10 µM; at human Lp-PLA2 (setting [1]), 0.25 µM; at human Lp-PLA2 (setting [2]) it was 0.57 µM; against sPLA2 IIA, more than 10 µM. For the same compound, the “Selectivity Index (sPLA2/Lp-PLA2)” value on sPLA2 IIA was more than 17.5.
In the case of `CC(=O)c1c(-c2ccccc2)c(C(=O)c2ccc(Br)cc2)c2ccccn12` [Cmpd 9, 1-[1-(4-bromobenzoyl)-2-phenylindolizin-3-yl]ethanone], the concentration for half-maximal inhibition (IC50) on human COX-1 was more than 10 µM; at human COX-2, more than 10 µM; on human Lp-PLA2 (setting [1]), 0.94 µM; at human Lp-PLA2 (setting [2]), 0.7 µM; against sPLA2 IIA, more than 10 µM. Further, the “Selectivity Index (sPLA2/Lp-PLA2)” value at sPLA2 IIA is more than 14.2.
For the compound `CC(=O)c1c(-c2ccccc2)c(C(=O)c2ccc(Cl)cc2)c2ccccn12` [Cmpd 10, 1-[1-(4-chlorobenzoyl)-2-phenylindolizin-3-yl]ethanone], the IC50 on human COX-1 was more than 10 µM; against human COX-2, more than 10 µM; on human Lp-PLA2 (setting [1]) it was 0.7 µM; on human Lp-PLA2 (setting [2]), 0.94 µM; against sPLA2 IIA, more than 10 µM. At sPLA2 IIA, the “Selectivity Index (sPLA2/Lp-PLA2)” value was more than 10.6.
`CC(=O)c1c(-c2ccc(C)cc2)c(C(=O)c2ccccc2)c2ccccn12` [Cmpd 11, 1-[1-benzoyl-2-p-tolylindolizin-3-yl]ethanone]: the concentration for half-maximal inhibition (IC50) on human Lp-PLA2 (setting [1]) came to 0.02 µM.
Take `CC(=O)c1c(-c2ccccc2)c(C(=O)c2ccc(F)c(F)c2)c2ccccn12` [Cmpd 12, 1-[1-(3,4-difluorobenzoyl)-2-phenylindolizin-3-yl]ethanone]: at human Lp-PLA2 (setting [1]), the 50% inhibitory concentration (IC50) is 0.79 µM.
